Laboratory results taken from patent US20240016804A1, “METHODS AND MATERIALS FOR ASSESSING AND TREATING HYPERTENSIVE DISORDERS” (Mayo Foundation for Medical Education and Research, priority 2019, published 2024).

Tested on: PE-MSC
Assay: Apoptosis assay for MSC (Annexin V, IncuCyte S3, Red Object Count), PE-MSC
Assay type: cell-based, human
Conditions: dose response 1, 2, 5 and 10 μM, 24 hours
Description: MSC isolation from adipose tissue: Abdominal fat tissue (3-5 g) obtained during C-section was cultured at 37° C./5% CO2 in Advanced MEM media supplemented with 5% platelet lysate (PLTmax, Mill Creek Life Sciences, Rochester, MN), which provides a robust growth medium. The third passage of cells was used for phenotype/function analysis. MSC were positive to CD90, CD44, and CD105, negative to CD34, CD31, and CD45 by Flow Cytometry (FlowSight™, Amnis, Seattle, WA), and were able to transdifferentiate into adipocytes, chondrocytes, and osteocytes. For studies in non-pregnant subjects, MSC were isolated from three healthy kidney donors at time of kidney donation.
Apoptosis was assessed by Annexin V reagent (Essen Bioscience) using the IncuCyte S3 Live-Cell Analysis System (Essen Bioscience).
The initial dose response experiments were performed to determine the optimal Dasatinib concentration using the apoptotic assay and IncuCyte S3 Live-Cell Analysis System (Essen Bioscience). Approximately 1×10^6 MSC (PE and NP) in passage #4, were treated with the senolytic drug, Dasatinib at concentrations of 1, 2, 5 and 10 μM (dissolved in 0.1% DMSO) for 24 hours. Three groups were analyzed: 1) cells incubated in media, 2) vehicle: cells treated with 0.1% DMSO, 3) cells treated with Dasatinib. […] Annexin V, added at the beginning of the treatment, labeled apoptotic cells yielding red fluorescence. […]

Cc1nc(Nc2ncc(C(=O)Nc3c(C)cccc3Cl)s2)cc(N2CCN(CCO)CC2)n1 [Dasatinib]
Optimal concentration (from ratios of apoptotic cells): 1 µM
